Marks after values point to notes of the source that are not given here.
Legend:
[1] = system: testes of a male pig; assay: Example 3: pattern of testicular shrinkage after intratesticular injection in male pig; assay type: in vivo; conditions: 1 ml of 10% by weight solution per testis
[2] = system: testis; assay: Example 2: beagle puppy injected in each testis, testes excised at 30 months; assay type: in vivo, beagle dog; conditions: 0.25 ml per testis (13.1 mg/ml zinc), dorsal cranial, injected at six months, sacrificed at 30 months; control 6.8 g
Protocol: A beagle puppy weighing 19 lbs at six months of age was injected in each testis with 0.25 ml of a chemical sterilant containing 13.1 mg/ml of zinc as zinc gluconate neutralized by 34.8 mg/ml of l-arginine with the pH adjusted to 7.0 with hydrochloric acid. The injection was into the dorsal cranial portion of the testis as could best be estimated externally.
The treated animal was sacrificed at 30 months of age when he weighed 31 lbs. The testes were excised and each weighed 3.5 g.
A control beagle weighing 18 lbs at six months was housed with the treated animal. This animal was also sacrificed at 30 months. The control dog weighed 30 lbs and each testis weighed 6.8 g. A histological section of the rete testis of the control animal was taken and a light micrograph of the section at 10× is shown in FIG. 2.

[3] = system: testes of sexually mature male dogs; assay: Example 7: semen evaluation of 53 sexually mature male dogs; assay type: in vivo, dog; conditions: six months post-injection, one of 53 dogs
Protocol: Dosage was based on testicular width according to the following table.
Semen analysis of all dogs prior to injection indicated normal fertility parameters. All of the dogs were followed for six months post-injection, and semen analysis was performed at 2 month intervals for a total of three times.

[4] = system: testes of male puppies; assay: Example 6: clinical trial in 225 male puppies at five sites, semen analysis and physical examination; assay type: in vivo, dog
Protocol: Four hundred fifty (450) intratesticular injections were performed in the dorsal cranial area of the testes of 225 male puppies (one injection per testis; two testes per dog) at five investigational sites. The 225 puppies ranged in age from 2½ to 10 months and were of various breeds. After the necessary training, all of the investigators mastered the technique of testicular measurement and intratesticular injection (dorsal cranial). Based on the experience of these investigators in the clinical trial, all veterinarians will be able to easily use this dorsal cranial injection technique.
After at least 6 months of follow-up, semen analysis and physical examination were performed as the primary indicators of clinical trial efficacy.

[5] = system: testes of male Beagle puppies; assay: Example 5: semen analysis of Beagle puppies; assay type: in vivo, Beagle dog
Protocol: (§1) Forty (40) healthy, male Beagle puppies, six months of age, were divided into the following four groups according to testicular width.
Semen analysis was performed on a monthly basis for […]. Semen analysis at 24 months post-injection indicated the following.

[6] = Example 5: body homeostasis, clinical observations and testicular measurement in Beagle puppies; assay type: in vivo, Beagle dog; conditions: 25, 30 or 35 mg per testis
Protocol: as §1
The body weight of all dogs increased.
(§2) As compared to the control placebo group, serum testosterone level at twelve (12) months post-injection had (1) decreased by 43% in the 25 mg treated group, (2) decreased by 55% in the 30 mg treated group, and (3) decreased by 52% in the 35 mg treated group.

[7] = system: testes of male Beagle puppies; assay: Example 5: quantitative evaluation of testis histopathology; assay type: in vivo, Beagle dog; conditions: n = 10
Protocol: as §1
Quantitative information provides the strongest evidence that control and treated tissues are either alike or different. In order to obtain the very detailed information about the testes after dorsal cranial injection, quantitative evaluation of the testes histopathology was performed in 40 dogs post-injection.

[8] = system: serum testosterone; assay: Example 5: serum testosterone level in Beagle puppies; assay type: in vivo, Beagle dog; conditions: twelve months post-injection
Protocol: as §1, §2

[9] = system: testes of Sprague Dawley male rats; assay: Example 4: infertility/sterility in rats, dorsal cranial vs midline injection, histopathology of epididymides and testes; assay type: in vivo, rat; conditions: 0.1 ml 10% per testis; for infertility/sterility achieved, share of rats: two months post-injection, 10 rats
Protocol: Twenty (20) Sprague Dawley, male rats were divided into two groups of ten (10) rats per group. […] Two months post-injection, both groups were sacrificed, and all of the epididymides and testes were evaluated by histopathology.

[10] = system: male Beagle puppies; assay: Example 5: exposure of treated dogs to females in heat (copulation, pregnancy); assay type: in vivo, Beagle dog; conditions: for number of the ten dogs that copulated with females: each dog exposed to three females in heat
From the text: as §1
Of the ten control placebo dogs, seven copulated with females and pregnancy occurred in all of the females (100% pregnancy rate). Each of the treated dogs was exposed to three different females in heat.

[11] = Total of all six doses, n = 225
[12] = 25 mg per testis, 24 months post-injection, n = 10
[13] = 25 mg per testis, the 10% of dogs with severe oligospermia, 24 months
[14] = dorsal cranial injection, two months

N=C(N)NCCC[C@H](N)C(=O)O.[Zn] [zinc arginine]
pattern of testicular shrinkage ([1]; injection at the dorsal cranial area (FIG. 5)): proportional shrinkage
pattern of testicular shrinkage ([1]; injection at the midline (FIG. 4)): disproportional shrinkage

zinc gluconate neutralized by arginine
weight of each excised testis [2]: 3.5 g
Sperm Concentration of the dog that stayed normal [3]: Normal 70 million/ml
Aspermia (No Semen Ejaculated), number of puppies [4, 11]: 174
Azoospermia (No Sperm in Ejaculate), number of puppies [4, 11]: 48
Necrospermia (Sperm in Ejaculate Are Dead or Motionless), number of puppies [4, 11]: 1
Oligospermia (Less than 20 Million Sperm per ml), number of puppies [4, 11]: 1
Sperm in Ejaculate Are Motile, number of puppies [4, 11]: 1
Aspermia (No Semen Ejaculated), number of puppies ([4]; dose per testis 0.2 ml): 59
Azoospermia (No Sperm in Ejaculate), number of puppies ([4]; dose per testis 0.2 ml): 12
Necrospermia (Sperm in Ejaculate Are Dead or Motionless), number of puppies ([4]; dose per testis 0.2 ml): 0
Oligospermia (Less than 20 Million Sperm per ml), number of puppies ([4]; dose per testis 0.2 ml): 1
Sperm in Ejaculate Are Motile, number of puppies ([4]; dose per testis 0.2 ml): 0
Aspermia (No Semen Ejaculated), number of puppies ([4]; dose per testis 0.3 ml): 27
Azoospermia (No Sperm in Ejaculate), number of puppies ([4]; dose per testis 0.3 ml): 5
Necrospermia (Sperm in Ejaculate Are Dead or Motionless), number of puppies ([4]; dose per testis 0.3 ml): 0
Oligospermia (Less than 20 Million Sperm per ml), number of puppies ([4]; dose per testis 0.3 ml): 0
Sperm in Ejaculate Are Motile, number of puppies ([4]; dose per testis 0.3 ml): 0
Aspermia (No Semen Ejaculated), number of puppies ([4]; dose per testis 0.5 ml): 21
Azoospermia (No Sperm in Ejaculate), number of puppies ([4]; dose per testis 0.5 ml): 7
Necrospermia (Sperm in Ejaculate Are Dead or Motionless), number of puppies ([4]; dose per testis 0.5 ml): 0
Oligospermia (Less than 20 Million Sperm per ml), number of puppies ([4]; dose per testis 0.5 ml): 0
Sperm in Ejaculate Are Motile, number of puppies ([4]; dose per testis 0.5 ml): 1*
Aspermia (No Semen Ejaculated), number of puppies ([4]; dose per testis 0.7 ml): 30
Azoospermia (No Sperm in Ejaculate), number of puppies ([4]; dose per testis 0.7 ml): 4
Necrospermia (Sperm in Ejaculate Are Dead or Motionless), number of puppies ([4]; dose per testis 0.7 ml): 0
Oligospermia (Less than 20 Million Sperm per ml), number of puppies ([4]; dose per testis 0.7 ml): 0
Sperm in Ejaculate Are Motile, number of puppies ([4]; dose per testis 0.7 ml): 0
Aspermia (No Semen Ejaculated), number of puppies ([4]; dose per testis 0.8 ml): 19
Azoospermia (No Sperm in Ejaculate), number of puppies ([4]; dose per testis 0.8 ml): 4
Necrospermia (Sperm in Ejaculate Are Dead or Motionless), number of puppies ([4]; dose per testis 0.8 ml): 1
Oligospermia (Less than 20 Million Sperm per ml), number of puppies ([4]; dose per testis 0.8 ml): 0
Sperm in Ejaculate Are Motile, number of puppies ([4]; dose per testis 0.8 ml): 0
Aspermia (No Semen Ejaculated), number of puppies ([4]; dose per testis 1.0 ml): 18
Azoospermia (No Sperm in Ejaculate), number of puppies ([4]; dose per testis 1.0 ml): 16
Necrospermia (Sperm in Ejaculate Are Dead or Motionless), number of puppies ([4]; dose per testis 1.0 ml): 0
Oligospermia (Less than 20 Million Sperm per ml), number of puppies ([4]; dose per testis 1.0 ml): 0
Sperm in Ejaculate Are Motile, number of puppies ([4]; dose per testis 1.0 ml): 0
efficacy (infertility/sterility) ([4]; six different doses, 225 puppies, at least 6 months of follow-up): 99.6%
number of puppies (of 225) in which infertility/sterility was achieved ([4]; six different doses, dorsal cranial, at least 6 months of follow-up): 224
share of dogs permanently sterilized (azoospermia or aspermia) [5, 12]: 90%
share of dogs with severe oligospermia [5, 12]: 10%
Concentration/ml (×10^6) [5, 13]: 0.01 ×10^6/ml
Motility [5, 13]: 1.00%
Normal Sperm [5, 13]: 6.70%
Volume of Ejaculation [5, 13]: 0.74 mL
share of dogs permanently sterilized (azoospermia or aspermia) ([5]; 30 mg per testis, 24 months post-injection, n = 10): 100%
share of dogs permanently sterilized (azoospermia or aspermia) ([5]; 35 mg per testis, 24 months post-injection, n = 10): 100%
overall outcome of one intratesticular injection ([5]; dorsal cranial area, male puppies): permanent sterilization
effect on rectal temperature, complete blood count, blood chemistries [6]: no clinical effect
body weight ([6]; all dogs): increased
effect on body homeostasis ([6]; dorsal cranial): None of the treatments affected body homeostasis
testicular swelling post-injection ([6]; for one week post-injection): transient testicular swelling
testicular measurement after the first week ([6]; p<0.0001, control placebo increased): decreased significantly
Basement Membrane, Average ([7]; 25 mg per testis): 4.80 μm
Basement Membrane, Left ([7]; 25 mg per testis): 5.00 μm
Basement Membrane, Right ([7]; 25 mg per testis): 4.59 μm
Diameter of Seminiferous Tubule, Average ([7]; 25 mg per testis): 124.00 μm
Diameter of Seminiferous Tubule, Left ([7]; 25 mg per testis): 116.0 μm
Diameter of Seminiferous Tubule, Right ([7]; 25 mg per testis): 132.0 μm
Height of Germinal Epithelium, Average ([7]; 25 mg per testis): 14.10 μm
Height of Germinal Epithelium, Left ([7]; 25 mg per testis): 11.8 μm
Height of Germinal Epithelium, Right ([7]; 25 mg per testis): 16.4 μm
Basement Membrane, Average ([7]; 30 mg per testis): 5.53 μm
Basement Membrane, Left ([7]; 30 mg per testis): 5.50 μm
Basement Membrane, Right ([7]; 30 mg per testis): 5.57 μm
Diameter of Seminiferous Tubule, Average ([7]; 30 mg per testis): 113.75 μm
Diameter of Seminiferous Tubule, Left ([7]; 30 mg per testis): 115.1 μm
Diameter of Seminiferous Tubule, Right ([7]; 30 mg per testis): 112.4 μm
Height of Germinal Epithelium, Average ([7]; 30 mg per testis): 7.20 μm
Height of Germinal Epithelium, Left ([7]; 30 mg per testis): 5.5 μm
Height of Germinal Epithelium, Right ([7]; 30 mg per testis): 8.9 μm
Basement Membrane, Average ([7]; 35 mg per testis): 6.00 μm
Basement Membrane, Left ([7]; 35 mg per testis): 6.04 μm
Basement Membrane, Right ([7]; 35 mg per testis): 5.96 μm
Diameter of Seminiferous Tubule, Average ([7]; 35 mg per testis): 124.05 μm
Diameter of Seminiferous Tubule, Left ([7]; 35 mg per testis): 124.8 μm
Diameter of Seminiferous Tubule, Right ([7]; 35 mg per testis): 123.3 μm
Height of Germinal Epithelium, Average ([7]; 35 mg per testis): 10.30 μm
Height of Germinal Epithelium, Left ([7]; 35 mg per testis): 9.6 μm
Height of Germinal Epithelium, Right ([7]; 35 mg per testis): 11.0 μm
decrease of serum testosterone level compared to control placebo ([8]; 25 mg per testis): 43%
decrease of serum testosterone level compared to control placebo ([8]; 30 mg per testis): 55%
decrease of serum testosterone level compared to control placebo ([8]; 35 mg per testis): 52%
function of the testes (histopathology) [9, 14]: complete dysfunction in the testes
sperm in the epididymides [9, 14]: no sperm were found in the epididymides
infertility/sterility achieved, share of rats ([9]; dorsal cranial injection): 100%
function of the testes (histopathology) ([9]; midline injection, two months): some parts of the testes were functioning
share of epididymides in which sperm were found ([9]; midline injection, two months): 30%
infertility/sterility achieved, share of rats ([9]; midline injection): 70%
number of the ten dogs that copulated with females ([10]; 25 mg per testis): Two
number of the ten dogs that copulated with females ([10]; 30 mg per testis): five
number of the ten dogs that copulated with females ([10]; 35 mg per testis): four
pregnancy of females after copulation ([10]; 25, 30 and 35 mg per testis, control placebo 100% pregnancy rate): no pregnancy occurred

Source: US8389019B2, “Method for improving the quality of meat by reducing boar taint” (priority 2007, dated 2013)
